# Laboratory results from patent US7485326B2, “Oral microemulsion composition comprising biphenyldimethyldicarboxylate and silybin” (Hanmi Pharm Co., Ltd., priority 2003, dated 2009).
# How the values were obtained:
# liver damaged by CCl4 = experiment: Therapeutic effect on the liver damaged by carbon tetrachloride (Test Example 1); type: in vivo, Sprague Dawley rats; conditions: serum
# Protocol: The therapeutic effect of the inventive oral microemulsion composition on the liver damaged by CCl4 was examined as follows.
# Thirty-six 4 to 5-week old male Sprague Dawley rats were divided into six groups each consisting of 6 rats having an average body weight of 202±5g. The rats were acclimated to the cage environment set at 23±2° C. and 55±5% relative humidity. Then 50% (v/v) solution of carbon tetrachloride in corn oil was intraperitoneally administered to each rat of five experimental groups (Groups 1 to 5) at a dose of 0.75 ml/kg, twice a week (monday and friday) to induce hepatotoxicity.
# The rats of Group 1 (negative control) were not treated with any therapeutic drug after the CCl4 injection. The rats of Group 2 (positive control) were orally administered with BDD suspended in 1% (w/v) CMC (carboxymethyl cellulose) once a day, six times a week after the CCl4 injection, in an amount corresponding to 25 mg/kg of BDD; the rats of Group 3, with a Carduus marianus extract suspended in 1% (w/v) CMC, in an amount corresponding to 175 mg/kg of the Carduus marianus extract (52.5 mg/kg as silybin); and the rats of Group 4, with a simple mixture of BDD and Carduus marianus extract suspended in 1% (w/v) CMC, in an amount corresponding to 25 mg/kg of BDD and 175 mg/kg of the Carduus marianus extract. The rats of Group 5 were orally administered with the formulation of Example 3 once a day, six times a week, in an amount corresponding to 3 mg/kg of BDD and 175 mg/kg of the Carduus marianusextract; and the rats of Group 6 (normal group) were not subjected to CCl4injection and no therapeutic drugs were administered thereto.
# Four weeks after the administration, the rats were sacrificed and serum samples were taken according to a preset schedule. The serum ALT (alanine aminotransferase) and AST (aspartate aminotransferase) levels were measured in accordance with a conventional method, and the results are shown in Tables 1 and 2, respectively.
# [1] = test system: fatty liver induced by dl-ethionine; experiment: Therapeutic effect on the dl-ethionine-induced fatty liver (Test Example 3); type: in vivo, Sprague Dawley rats
# Protocol: In order to examine the therapeutic effect of the inventive oral microemulsion composition, a test to measure the activity of restoring fatty liver induced by dl-ethionine was conducted as follows.
# Six groups of rats, each consisting of 6 rats were prepared by the procedure of Test Example 1. A 2% (w/v) dl-ethionine saline solution was subcutaneously injected to each rat of five experimental groups (Groups 1 to 5) at a dosage of 200 mg/kg, twice a week to induce fatty liver.
# The rats of Group 1 (negative control) were not treated with any therapeutic drug after the ethionine injection. The rats of Group 2 (positive control) were orally administered with BDD suspended in 1% (w/v) CMC once a day, five times a week after the ethionine injection, in an amount corresponding to 25 mg/kg of BDD; the rats of Group 3, with the Carduus marianus extract suspended in 1% (w/v) CMC, in an amount corresponding to 175 mg/kg of the Carduus marianus extract (52.5 mg/kg as silybin); and the rats of Group 4, with a simple mixture of BDD and Carduus marianusextract suspended in 1% (w/v) CMC, in an amount corresponding to 25mg/kg of BDD and 175 mg/kg of the Carduus marianus extract. The rats of Group 5 were orally administered with the formulation of Example 3 once a day, five times a week, in an amount corresponding to 3 mg/kg of BDD and 175 mg/kg of the Carduus marianus extract; and the rats of Group 6 (normal group) received neither ethionine injection nor any therapeutic drug.
# One week after the administration, each rat was sacrificed, and the liver was extracted therefrom. The extracted liver was washed with saline, soaked in a 4-fold volume of potassium phosphate buffer (pH 7.5), and homogenized with a teflone-glass homogenizer. The homogenized liver was subjected to centrifugation at 600×g for 10 minutes to obtain a supernatant, which was subjected to centrifugations at 10,000×g for 20minutes, and then at […], to obtain a supernatant.
# Then, the total cholesterol and triglyceride levels of each liver sample were measured by employing the supernatant in accordance with a conventional method, and the results are shown in Tables 5 and 6, respectively.
# [2] = CCl4-treated rats, oral once a day six times a week, four weeks, BDD 25 mg/kg, extract 175 mg/kg, Example 3: 3 mg/kg BDD + 175 mg/kg extract
# [3] = versus CCl4 control Group 1, four weeks
# [4] = dl-ethionine-treated rats, oral once a day five times a week, one week, BDD 25 mg/kg, extract 175 mg/kg, Example 3: 3 mg/kg BDD + 175 mg/kg extract
# [5] = versus ethionine control Group 1, one week
smiles,measurement,setting,value
"COC(=O)c1cc(OC)c2c(c1-c1c(C(=O)OC)cc(OC)c3c1OCO3)OCO2 [BDD, biphenyldimethyldicarboxylate]",ALT (average concentration ± standard deviation),liver damaged by CCl4; [2],137.7 ± 19.5 SF U/ml
same,AST (average concentration ± standard deviation),liver damaged by CCl4; [2],163.3 ± 4.5 SF U/ml
same,Ratio of ALT level to a control,liver damaged by CCl4; [3],91.7%
same,Ratio of AST level to a control,liver damaged by CCl4; [3],95.2%
same,Total Cholesterol (average concentration ± standard deviation),[1]; [4],22.0 ± 1.9 mg/g
same,Triglyceride (average concentration ± standard deviation),[1]; [4],10.1 ± 0.5 mg/g
same,Ratio of cholesterol level to a control,[1]; [5],91.3%
same,Ratio of triglylceride level to a control,[1]; [5],72.7%
